From patent EP4603105A1, “PHARMACEUTICAL COMPOSITION CONTAINING CYCLIC COMPOUND HAVING SELECTIVE KRAS INHIBITORY EFFECT AGAINST HRAS AND NRAS” (CHUGAI SEIYAKU KABUSHIKI KAISHA, priority 2022, dated 2024)
*1 amine or outer side, *2 acyl side, *3 side chain or, on linkers, in order; H or OH if unused. Where a SMILES comes first, the peptide text is derived from it. Bridges are numbered along the chain shown (N, C = ends). [ ]: non-standard residue; d: D form. The star is where a group is joined. hPhe(3-Cl-4-CF3) = N[C@@H](CCc1ccc(C(F)(F)F)c(Cl)c1)C(=O)O; NPrPhe(4-CF3) = CCCN[C@@H](Cc1ccc(C(F)(F)F)cc1)C(=O)O; X40 = Cc1ccc(C[C@@H](C(=O)[*:2])N(CC(C)C)[*:1])cc1; X46 = C=CCCN([C@@H](Cc1ccc(C)cc1)C(=O)[*:2])[*:1]; NEtPhe(4-Me) = CCN[C@@H](Cc1ccc(C)cc1)C(=O)O; NMeGly(cPent) = CN[C@H](C(=O)O)C1CCCC1; NMeAllylGly = C=CC[C@H](NC)C(=O)O; NMeD = CN[C@@H](CC(=O)O)C(=O)O; NMeL = CN[C@@H](CC(C)C)C(=O)O; Morpholide = C1CN(*)CCO1; NMeA = CN[C@@H](C)C(=O)O; Ac5c = NC1(C(=O)O)CCCC1; Aze = O=C(O)[C@@H]1CCN1; Ac4c = NC1(C(=O)O)CCC1; NPrGly = CCCNCC(=O)O; NEtG = CCNCC(=O)O; Sar = CNCC(=O)O

Legend:
[1] = system: human lung cancer strain NCI-H441; format: cell-based
Method in brief: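 Signal came from […] measured per well once the reagent was added. Beforehand, cells were cultured at 37°C and 5% carbon dioxide on a compound series serially diluted in dimethyl sulfoxide.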

[2] = target: GDP-bound NRAS wild-type protein (Homo sapiens, UniProt P01111); experiment: Binding to NRAS by surface plasmon resonance (SPR), KD and KD ratio to KRAS
Method in brief: (§1)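 Measured at 30°C: SPR with GDP-loaded, E. coli-expressed biotin-Avi RAS captured (~100–300 RU), ascending 75 s compound injections, HBS pH 7.4 with GDP, MgCl2, 4% DMSO. KD from 1:1 fit.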

HRAS wild-type protein = HRAS wild-type protein (Homo sapiens, UniProt P01112); experiment: Binding to HRAS by surface plasmon resonance (SPR), KD and KD ratio to KRAS
Method in brief: as §1

[3] = ratio of KD for GDP-bound NRAS wild-type protein to KD for KRAS
[4] = ratio of KD for HRAS wild-type protein to KD for KRAS
[5] = ratio of the KD value with respect to GDP-bound NRAS wild-type protein to the KD value with respect to KRAS
[6] = ratio of the KD value with respect to HRAS wild-type protein to the KD value with respect to KRAS

Chain of GDP-bound NRAS wild-type protein (P01111 whole entry): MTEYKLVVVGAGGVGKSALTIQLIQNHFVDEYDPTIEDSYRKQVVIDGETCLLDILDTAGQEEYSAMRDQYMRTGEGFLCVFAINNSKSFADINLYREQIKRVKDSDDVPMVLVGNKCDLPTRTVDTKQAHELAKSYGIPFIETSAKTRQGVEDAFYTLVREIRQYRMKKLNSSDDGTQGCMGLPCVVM
Chain of HRAS wild-type protein (P01112 whole entry): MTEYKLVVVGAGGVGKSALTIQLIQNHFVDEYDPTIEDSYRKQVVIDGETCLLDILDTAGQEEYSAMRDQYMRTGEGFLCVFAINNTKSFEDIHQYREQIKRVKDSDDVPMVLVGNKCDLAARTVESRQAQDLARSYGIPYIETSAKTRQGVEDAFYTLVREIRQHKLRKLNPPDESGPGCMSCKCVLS

IC50 [1] [µM]	Structure (SMILES)	NRAS /KRAS ([2]; ratio of KD value for GDP-bound NRAS wild-type protein to KD value for KRAS (SPR))	HRAS /KRAS (HRAS wild-type protein; ratio of KD value for HRAS wild-type protein to KD value for KRAS (SPR))	NRAS /KRAS [2, 3]	HRAS /KRAS (HRAS wild-type protein; [4])	NRAS /KRAS [2, 5]	HRAS /KRAS (HRAS wild-type protein; [6])
0.003	CCO[C@@H]1C[C@H]2C(=O)NC3(CC(C)(C)C3)C(=O)N(C)[C@@H](C3CCCC3)C(=O)N(C)[C@H](C(=O)N(C)C)CC(=O)N(C)[C@@H](CC(F)(F)F)C(=O)N[C@@H]([C@@H](C)CC)C(=O)N(C)CC(=O)N(C)[C@H]3C/C=C\CCN(C3=O)[C@@H](Cc3ccc(C(F)(F)F)cc3)C(=O)N(C)CC(=O)N[C@@H](CCc3ccc(C(F)(F)F)c(OC)c3)C(=O)N2C1 [PP1675]	A (a compound having 10 or more and less than 20 is denoted as A)	B (a compound having 3 or more and less than 10 is denoted as B)	–	–	–	–
0.101	CCO[C@@H]1C[C@H]2C(=O)NC3(CCC3)C(=O)N(C)[C@@H](C3CCCC3)C(=O)N[C@H](C)CC(=O)N(C)[C@@H](CC)C(=O)N[C@@H]([C@@H](C)CC)C(=O)N(C)CC(=O)N(C)[C@H]3C/C=C\CCN(C3=O)[C@@H](Cc3ccc(C(F)(F)F)cc3)C(=O)N(C)CC(=O)N[C@@H](CCc3cc(F)c(C(F)(F)F)c(F)c3)C(=O)N2C1 [PP1098]	–	–	B (a compound having 3 or more and less than 10 is denoted as B)	B (a compound having 3 or more and less than 10 is denoted as B)	–	–
0.0496	CC[C@H](C)[C@@H]1NC(=O)[C@H](CC(C)C)N(C)C(=O)C[C@@H](C(=O)N2CCOCC2)N(C)C(=O)[C@H](C2CCCC2)N(C)C(=O)C2(CCCC2)NC(=O)[C@@H]2CCCN2C(=O)[C@H](CCc2ccc(C(F)(F)F)c(Cl)c2)NC(=O)CN(C)C(=O)[C@H](Cc2ccc(C)cc2)N(CC(C)C)C(=O)[C@@H]2CCN2C(=O)[C@H](C)N(C)C1=O [PP0056] ([NMeL]I[NMeA][Aze][X40][Sar][hPhe(3-Cl-4-CF3)]P[Ac5c][NMeGly(cPent)][NMeD]-Morpholide; lactam N-11)	–	–	C (A compound having a KD ratio of 0.1 or more and less than 3 is denoted as C)	B (a compound having 3 or more and less than 10 is denoted as B)	–	–
0.0122	C=CC[C@H]1C(=O)N[C@@H]([C@@H](C)CC)C(=O)N(C)CC(=O)N(C)[C@H]2C/C=C\CCN(C2=O)[C@@H](Cc2ccc(C(F)(F)F)cc2)C(=O)N(C)CC(=O)N[C@@H](CCc2cc(F)c(C(F)(F)F)c(F)c2)C(=O)N2C[C@H](OCC)C[C@H]2C(=O)NC2(CCC2)C(=O)N(C)[C@@H](C2CCCC2)C(=O)N(C)[C@H](C(=O)N(C)C)CC(=O)N1C [PP1114]	–	–	A (a compound having 10 or more and less than 20 is denoted as A)	A (a compound having 10 or more and less than 20 is denoted as A)	–	–
0.0382	CCCN1CC(=O)NC2(CCCC2)C(=O)N(C)[C@@H](C2CCCC2)C(=O)N(C)[C@H](C(=O)N2CCOCC2)CC(=O)N(C)[C@@H](CC(C)C)C(=O)N[C@@H]([C@@H](C)CC)C(=O)N(C)CC(=O)N(C)CC(=O)N(CCC)[C@@H](Cc2ccc(C(F)(F)F)cc2)C(=O)N(C)CC(=O)N[C@@H](CCc2ccc(C(F)(F)F)c(Cl)c2)C1=O [PP0267] ([NMeL]I[Sar][Sar][NPrPhe(4-CF3)][Sar][hPhe(3-Cl-4-CF3)][NPrGly][Ac5c][NMeGly(cPent)][NMeD]-Morpholide; lactam N-11)	–	–	B (a compound having 3 or more and less than 10 is denoted as B)	B (a compound having 3 or more and less than 10 is denoted as B)	–	–
0.713	C=CCCN1C(=O)[C@H](CC=C)N(C)C(=O)CN(C)C(=O)[C@H]([C@@H](C)CC)NC(=O)[C@H](CC(C)C)N(C)C(=O)C[C@@H](C(=O)N2CCOCC2)N(C)C(=O)[C@H](C2CCCC2)N(C)C(=O)C2(CCCC2)NC(=O)[C@@H]2CCCN2C(=O)[C@H](CCc2ccc(C(F)(F)F)c(Cl)c2)NC(=O)CN(C)C(=O)[C@@H]1Cc1ccc(C)cc1 [PP0140] ([NMeL]I[Sar][NMeAllylGly][X46][Sar][hPhe(3-Cl-4-CF3)]P[Ac5c][NMeGly(cPent)][NMeD]-Morpholide; lactam N-11)	–	–	C (A compound having a KD ratio of 0.1 or more and less than 3 is denoted as C)	B (a compound having 3 or more and less than 10 is denoted as B)	–	–
0.0118	CCCOC[C@H]1C(=O)N[C@@H]([C@@H](C)CC)C(=O)N2CCC[C@H]2C(=O)N(C)[C@H]2C/C=C\CCN(C2=O)[C@@H](Cc2ccc(C)cc2)C(=O)N(C)CC(=O)N[C@@H](CCc2ccc(C(F)(F)F)c(OC)c2)C(=O)N2C[C@H](OCC)C[C@H]2C(=O)N(C)C2(CCC2)C(=O)N(C)[C@@H](C(CC)CC)C(=O)N(C)[C@H](C(=O)N(C)C)CC(=O)N1C [PP2331]	–	–	–	–	AA (a compound having 20 or more is denoted as AA)	A (a compound having 10 or more and less than 20 is denoted as A)
0.0092	CCC[C@H]1C(=O)N[C@@H]([C@@H](C)CC)C(=O)N(C)CC(=O)N(C)[C@H]2C/C=C\CCN(C2=O)[C@@H](Cc2ccc(C(F)(F)F)cc2)C(=O)N(C)CC(=O)N[C@@H](CCc2cc(F)c(C(F)(F)F)c(F)c2)C(=O)N2C[C@H](OCC)C[C@H]2C(=O)NC2(CC(C)(C)C2)C(=O)N(C)[C@@H](C2CCCC2)C(=O)N(C)[C@H](C(=O)N2CCC2)CC(=O)N1C [PP1943]	–	–	–	–	A (a compound having 10 or more and less than 20 is denoted as A)	B (a compound having 3 or more and less than 10 is denoted as B)
0.0685	CCC[C@H]1C(=O)N[C@@H]([C@@H](C)CC)C(=O)N(C)CC(=O)N(C)[C@H]2C/C=C\CCN(C2=O)[C@@H](Cc2ccc(C(F)(F)F)cc2)C(=O)N(C)CC(=O)N[C@@H](CCc2cc(F)c(C(F)(F)F)c(F)c2)C(=O)N(C)[C@@H](C)C(=O)NC2(CC(C)(C)C2)C(=O)N(C)[C@@H](C2CCCC2)C(=O)N(C)[C@H](C(=O)N(C)C)CC(=O)N1C [PP1934]	–	–	–	–	A (a compound having 10 or more and less than 20 is denoted as A)	A (a compound having 10 or more and less than 20 is denoted as A)
0.0296	CCCN1C(=O)[C@@H]2CCN2C(=O)CN(C)C(=O)[C@H]([C@@H](C)CC)NC(=O)[C@H](CC(C)C)N(C)C(=O)C[C@@H](C(=O)N(C)C)NC(=O)[C@H](C2CCCC2)N(C)C(=O)C2(CCC2)NC(=O)[C@@H]2CCCN2C(=O)[C@H](CCc2ccc(C(F)(F)F)c(Cl)c2)NC(=O)CN(C)C(=O)[C@@H]1Cc1ccc(C(F)(F)F)cc1 [PP0386] ([NMeL]I[Sar][Aze][NPrPhe(4-CF3)][Sar][hPhe(3-Cl-4-CF3)]P[Ac4c][NMeGly(cPent)]D-NMe2; lactam N-11)	–	–	C (A compound having a KD ratio of 0.1 or more and less than 3 is denoted as C)	B (a compound having 3 or more and less than 10 is denoted as B)	–	–
0.117	CCO[C@@H]1C[C@H]2C(=O)NC3(CCC3)C(=O)N(C)[C@@H](C3CCCC3)C(=O)N(C)[C@H](C(=O)N(C)C)CC(=O)N(C)[C@@H](CC(C)C)C(=O)N[C@@H]([C@@H](C)CC)C(=O)N3CC[C@H]3C(=O)N(C)[C@H]3CC(C)=C(C)CN(C3=O)[C@@H](Cc3ccc(C(F)(F)F)cc3)C(=O)N(C)CC(=O)N[C@@H](CCc3cc(F)c(C(F)(F)F)c(F)c3)C(=O)N2C1 [PP1047]	–	–	C (A compound having a KD ratio of 0.1 or more and less than 3 is denoted as C)	C (A compound having a KD ratio of 0.1 or more and less than 3 is denoted as C)	–	–
0.0867	CC[C@H](C)[C@@H]1NC(=O)[C@H](CC(C)C)N(C)C(=O)C[C@@H](C(=O)N2CCOCC2)N(C)C(=O)[C@H](C2CCCC2)N(C)C(=O)C2(CCCC2)NC(=O)[C@@H]2CCCN2C(=O)[C@H](CCc2ccc(C(F)(F)F)c(Cl)c2)NC(=O)CN(CC)C(=O)[C@H](Cc2ccc(C)cc2)N(CC)C(=O)CN(CC)C(=O)CN(C)C1=O [PP0030] ([NMeL]I[Sar][NEtG][NEtPhe(4-Me)][NEtG][hPhe(3-Cl-4-CF3)]P[Ac5c][NMeGly(cPent)][NMeD]-Morpholide; lactam N-11)	–	–	C (A compound having a KD ratio of 0.1 or more and less than 3 is denoted as C)	C (A compound having a KD ratio of 0.1 or more and less than 3 is denoted as C)	–	–
0.0049	C=CC[C@H]1C(=O)N[C@@H]([C@@H](C)CC)C(=O)N(C)CC(=O)N(C)[C@H]2CCCCN(C2=O)[C@@H](Cc2ccc(C(F)(F)F)cc2)C(=O)N(C)CC(=O)N[C@@H](CCc2cc(F)c(C(F)(F)F)c(F)c2)C(=O)N2C[C@H](OCC)C[C@H]2C(=O)N[C@](C)(CC=C)C(=O)N(C)[C@@H](C2CCCC2)C(=O)N(C)[C@H](C(=O)N2CCOCC2)CC(=O)N1C [PP0874]	–	–	C (A compound having a KD ratio of 0.1 or more and less than 3 is denoted as C)	B (a compound having 3 or more and less than 10 is denoted as B)	–	–
0.0116	CCCN1C(=O)[C@@H]2CCN2C(=O)[C@H](C)N(C)C(=O)[C@H]([C@@H](C)CC)NC(=O)[C@H](CC(C)C)N(C)C(=O)C[C@@H](C(=O)N2CCOCC2)N(C)C(=O)[C@H](C2CCCC2)N(C)C(=O)C2(CCCC2)NC(=O)[C@H](C)NC(=O)[C@H](CCc2ccc(C(F)(F)F)c(Cl)c2)NC(=O)CN(C)C(=O)[C@@H]1Cc1ccc(C(F)(F)F)cc1 [PP0153] ([NMeL]I[NMeA][Aze][NPrPhe(4-CF3)][Sar][hPhe(3-Cl-4-CF3)]A[Ac5c][NMeGly(cPent)][NMeD]-Morpholide; lactam N-11)	–	–	C (A compound having a KD ratio of 0.1 or more and less than 3 is denoted as C)	C (A compound having a KD ratio of 0.1 or more and less than 3 is denoted as C)	–	–
